Several values for one entry are separate records, joined by “and”; a condition that tells them apart may be missing. Equal entries are not always repeated. Where two headings read alike, the source gives them in different places.
Assays:
thrombin [1] = biological target: T1, thrombin (Homo sapiens, UniProt P00734); assay: Determination of Kis of purified thrombin inhibitors (IC50, Cheng-Prusoff); type: biochemical; details: for % thrombin activity: replicates 1-3; for IC50 / Ki: thrombin
T1 construct: consists of two polypeptide chains of 36 (light chain) and 259 amino acid
Method: Purified thrombin inhibitors (10 mM in DMSO) were diluted to 80 μM in 125 μL of Tris buffer (100 mM Tris-Cl, 150 mM NaCl, 10 mM MgCl2, 1 mM CaCl2) containing 0.1% w/v BSA, 0.01% v/v Triton-X100 and […]. The macrocycles were diluted two-fold in Tris buffer containing 0.1% w/v BSA, 0.01% v/v Triton-X100 and 1% DMSO in buffer. The thrombin activity was measured in 96-well plates (Greiner, 655101) and the residual activity calculated as described above in the assay used to measure activities of HPLC-separated fractions of screening hits.
Supplementary Figure 7. Thrombin inhibitors M1 to M5. a, Chemical structures and analytical HPLC chromatograms obtained using a 0-100% MeCN/H2O gradient over 15 minutes. b, For all macrocycles, an 18 -point, two-fold serial dilution was performed in 50 µL volumes. Thrombin was added (50 µL, 2 nM final conc.), followed 10 minutes later by fluorogenic substrate Z -Gly-Gly-Arg-AMC (50 µL, 50 µM final conc.). The increase in fluorescence was measured over 30 minutes.
Residual thrombin activity was determined by dividing the slope of fluorescenc e intensity over time for each well by the slope of control wells without macrocycle. Mean values and SDs are indicated for three independent thrombin inhibition measurements.
(1 picture or pasted object on this page, not shown here)

thrombin [2] = biological target: T1, thrombin; assay: Thrombin inhibition screen of crude macrocycle reactions (residual thrombin activity, fluorogenic substrate Z-Gly-Gly-Arg-AMC); type: biochemical; details: 10 µM macrocycle concentration, macrocycles containing acid 14, crude reaction
Outline: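 Residual activity was measured as the AMC release rate after adding 50 μM Z-Gly-Gly-Arg-AMC. This followed a 10-min room-temperature preincubation of 2 nM thrombin with 10 μM single macrocycles in pH 7.4 Tris buffer (0.6% DMSO). Percent inhibition was taken against the mean slope of DMSO controls.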

[3] = average of 3 replicates, read-out: IC50 (nM) Average
[4] = replicate 1, Cheng-Prusoff, read-out: Ki (nM) Replicate 1
[5] = replicate 1, read-out: IC50 (nM) Replicate 1
[6] = replicate 2, Cheng-Prusoff, read-out: Ki (nM) Replicate 2
[7] = replicate 2, read-out: IC50 (nM) Replicate 2
[8] = replicate 3, Cheng-Prusoff, read-out: Ki (nM) Replicate 3
[9] = replicate 3, read-out: IC50 (nM) Replicate 3

O=C1CCSSCCNC(=O)C(CNC(=O)c2ccc(Cl)s2)NC(=O)c2cccc(c2)CNC(=O)C(Cc2ccccc2)N1 (centres unmarked) [M2]
% thrombin activity (thrombin [1]; Log [Macrocycle] M -8.8): 99.5% and 97.4% and 98.4% | % thrombin activity (thrombin [1]; Log [Macrocycle] M -9.1): 100.1% (2×) and 99.4% | % thrombin activity (thrombin [1]; Log [Macrocycle] M -9.4): 100.7% and 100.1% and 99.7% | % thrombin activity (thrombin [1]; Log [Macrocycle] M -9.7): 100.6% and 99.6% and 99.8% | % thrombin activity (thrombin [1]; Log[Macrocycle] M -4.6): 3.5% and 3.8% and 4.4% | % thrombin activity (thrombin [1]; Log[Macrocycle] M -4.9): 4.9% (2×) and 5.4% | % thrombin activity (thrombin [1]; Log[Macrocycle] M -5.2): 6.7% and 6.5% and 7.1% | % thrombin activity (thrombin [1]; Log[Macrocycle] M -5.5): 9.9% and 8.4% and 9.6% | % thrombin activity (thrombin [1]; Log[Macrocycle] M -5.8): 16.3% and 13.3% and 13.6% | % thrombin activity (thrombin [1]; Log[Macrocycle] M -6.1): 26.3% and 21.4% and 21.2% | % thrombin activity (thrombin [1]; Log[Macrocycle] M -6.4): 42.5% and 32.8% and 34.8% | % thrombin activity (thrombin [1]; Log[Macrocycle] M -6.7): 58.0% and 47.2% and 49.8% | % thrombin activity (thrombin [1]; Log[Macrocycle] M -7.0): 71.8% and 64.0% and 65.5% | % thrombin activity (thrombin [1]; Log[Macrocycle] M -7.3): 83.6% and 77.5% and 79.8% | % thrombin activity (thrombin [1]; Log[Macrocycle] M -7.6): 92.7% and 85.4% and 86.8% | % thrombin activity (thrombin [1]; Log[Macrocycle] M -7.9): 95.0% and 92.0% and 93.5% | % thrombin activity (thrombin [1]; Log[Macrocycle] M -8.2): 99.2% and 94.0% and 94.1% | % thrombin activity (thrombin [1]; Log[Macrocycle] M -8.5): 98.9% and 96.9% and 97.6% | IC50 (thrombin [1]; [3]): 214 nM | Ki (thrombin [1]; [4]): 210 nM | IC50 (thrombin [1]; [5]): 270 nM | Ki (thrombin [1]; [6]): 138 nM | IC50 (thrombin [1]; [7]): 179 nM | Ki (thrombin [1]; [8]): 149 nM | IC50 (thrombin [1]; [9]): 193 nM | % thrombin activity, Original screen (thrombin [2]; original screen): 6.9% | % thrombin activity, Repeat screen (thrombin [2]; replicate reaction and screen): 6.5%

CC(C)C1NC(=O)CCSCSCCNC(=O)C(CNC(=O)c2ccc(Cl)s2)NC(=O)c2cccc(c2)CNC1=O (centres unmarked) [M4]
% thrombin activity (thrombin [1]; Log [Macrocycle] M -4.5): 0.233% and 0.231% and 2.7% | % thrombin activity (thrombin [1]; Log [Macrocycle] M -4.8): 1.1% and 1.5% and 2.1% | % thrombin activity (thrombin [1]; Log [Macrocycle] M -5.1): 2.6% and 3.2% and -2.3% | % thrombin activity (thrombin [1]; Log [Macrocycle] M -5.4): 3.6% and 5.7% and 3.8% | % thrombin activity (thrombin [1]; Log [Macrocycle] M -5.7): 8.1% and 9.4% and 6.2% | % thrombin activity (thrombin [1]; Log [Macrocycle] M -6.0): 12.9% and 16.1% and 11.7% | % thrombin activity (thrombin [1]; Log [Macrocycle] M -6.3): 22.1% and 27.3% and 19.3% | % thrombin activity (thrombin [1]; Log [Macrocycle] M -6.6): 34.1% and 41.1% and 30.9% | % thrombin activity (thrombin [1]; Log [Macrocycle] M -6.9): 55.7% and 58.5% and 45.5% | % thrombin activity (thrombin [1]; Log [Macrocycle] M -7.2): 67.0% and 71.8% and 59.8% | % thrombin activity (thrombin [1]; Log [Macrocycle] M -7.5): 78.0% and 82.2% and 70.6% | % thrombin activity (thrombin [1]; Log [Macrocycle] M -7.8): 96.6% and 99.4% and 81.6% | % thrombin activity (thrombin [1]; Log [Macrocycle] M -8.1): 97.9% and 103.9% and 87.1% | % thrombin activity (thrombin [1]; Log [Macrocycle] M -8.4): 104.8% and 107.0% and 92.8% | % thrombin activity (thrombin [1]; Log [Macrocycle] M -8.7): 103.7% and 107.0% and 93.5% | % thrombin activity (thrombin [1]; Log [Macrocycle] M -9.0): 106.1% and 107.4% and 94.0% | % thrombin activity (thrombin [1]; Log [Macrocycle] M -9.3): 106.8% and 100.7% and 99.2% | % thrombin activity (thrombin [1]; Log [Macrocycle] M -9.6): 107.9% and 105.2% and 99.6% | IC50 (thrombin [1]; [3]): 108 nM | IC50 (thrombin [1]; [5]): 119 nM | Ki (thrombin [1]; replicate 1, read-out: Ki (nM) Replicate 1): 92 nM | IC50 (thrombin [1]; [7]): 106 nM | Ki (thrombin [1]; replicate 2, read-out: Ki (nM) Replicate 2): 82 nM | IC50 (thrombin [1]; [9]): 99 nM | Ki (thrombin [1]; replicate 3, read-out: Ki (nM) Replicate 3): 76 nM

CC(C)[C@@H]1NC(=O)CCSSCCNC(=O)[C@H](CNC(=O)c2ccc(Cl)s2)NC(=O)c2cccc(c2)CNC1=O [M3]
% thrombin activity (thrombin [1]; Log [Macrocycle] M -8.8): 98.3% and 97.3% and 97.1% | % thrombin activity (thrombin [1]; Log [Macrocycle] M -9.1): 98.8% and 98.0% and 98.2% | % thrombin activity (thrombin [1]; Log [Macrocycle] M -9.4): 99.9% and 97.2% and 99.1% | % thrombin activity (thrombin [1]; Log [Macrocycle] M -9.7): 93.6% and 99.4% (2×) | % thrombin activity (thrombin [1]; Log[Macrocycle] M -4.6): -0.0344% and 0.5% and 0.739% | % thrombin activity (thrombin [1]; Log[Macrocycle] M -4.9): 0.656% and 1.5% and 1.0% | % thrombin activity (thrombin [1]; Log[Macrocycle] M -5.2): 2.2% and 5.0% and 2.4% | % thrombin activity (thrombin [1]; Log[Macrocycle] M -5.5): 4.8% and 4.9% and 5.3% | % thrombin activity (thrombin [1]; Log[Macrocycle] M -5.8): 9.4% and 9.7% (2×) | % thrombin activity (thrombin [1]; Log[Macrocycle] M -6.1): 17.5% and 15.4% and 16.3% | % thrombin activity (thrombin [1]; Log[Macrocycle] M -6.4): 29.4% and 28.1% and 27.8% | % thrombin activity (thrombin [1]; Log[Macrocycle] M -6.7): 45.2% and 42.3% and 41.8% | % thrombin activity (thrombin [1]; Log[Macrocycle] M -7.0): 60.5% and 58.8% and 57.9% | % thrombin activity (thrombin [1]; Log[Macrocycle] M -7.3): 75.1% and 75.3% and 74.4% | % thrombin activity (thrombin [1]; Log[Macrocycle] M -7.6): 85.8% and 81.9% and 83.6% | % thrombin activity (thrombin [1]; Log[Macrocycle] M -7.9): 92.4% and 87.2% and 91.4% | % thrombin activity (thrombin [1]; Log[Macrocycle] M -8.2): 97.7% and 93.3% and 94.6% | % thrombin activity (thrombin [1]; Log[Macrocycle] M -8.5): 97.5% and 94.4% and 96.1% | IC50 (thrombin [1]; [3]): 160 nM | Ki (thrombin [1]; [4]): 134 nM | IC50 (thrombin [1]; [5]): 170 nM | Ki (thrombin [1]; [6]): 121 nM | IC50 (thrombin [1]; [7]): 160 nM | Ki (thrombin [1]; [8]): 119 nM | IC50 (thrombin [1]; [9]): 150 nM
